Experimental data reported in the supplement of paper PMC10307832.

Columns and labels:
Assay in all cases: relative viability (nuclei count vs DMSO), 5 days (fraction); higher = more cells survive
201T = system: 201T
Method in brief: (§1)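 Lung cancer cell lines, seeded in 1536-well plates, were treated the following day by pin tool with a single drug or with five library-drug doses (not always all listed) in √10 steps on top of a fixed anchor-drug dose. Cells were fixed and nuclei stained in one step after 5 days, and nuclei were counted. Relative viability is the nuclei count for treated wells divided by that for vehicle wells, reported as medians of duplicate plates.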

A-427 = system: A-427
Method in brief: as §1

COR-L 105 = system: COR-L 105
Method in brief: as §1

COR-L23 = system: COR-L23
Method in brief: as §1

EKVX = system: EKVX
Method in brief: as §1

HARA = system: HARA
Method in brief: as §1

HCC-15 = system: HCC-15
Method in brief: as §1

HCC-827 = system: HCC-827
Method in brief: as §1

LCLC-103H = system: LCLC-103H
Method in brief: as §1

LK-2 = system: LK-2
Method in brief: as §1

NCI-H1437 = system: NCI-H1437
Method in brief: as §1

NCI-H1666 = system: NCI-H1666
Method in brief: as §1

NCI-H1975 = system: NCI-H1975
Method in brief: as §1

NCI-H23 = system: NCI-H23
Method in brief: as §1

NCI-H441 = system: NCI-H441
Method in brief: as §1

NCI-H520 = system: NCI-H520
Method in brief: as §1

NCI-H596 = system: NCI-H596
Method in brief: as §1

NCI-H650 = system: NCI-H650
Method in brief: as §1

NCI-H838 = system: NCI-H838
Method in brief: as §1

SK-MES-1 = system: SK-MES-1
Method in brief: as §1

SW 900 = system: SW 900
Method in brief: as §1

For `C[C@@H]1CN(CC(=O)Nc2ccc3c(c2)Cc2cccc(-c4cc(=O)cc(N5CCOCC5)o4)c2S3)C[C@H](C)O1` + COc1cc2c(Oc3ccc(NC(=O)C4(C(=O)Nc5ccc(F)cc5)CC4)cc3F)ccnc2cc1OCCCN1CCOCC1 [Foretinib] (partner 0.25 µM), the relative viability (201T; first compound 0.04 µM) was 0.93, the relative viability (201T; first compound 0.1265 µM) was 1.06 and the relative viability (201T; first compound 4 µM) was 0.936. For the same molecule, the relative viability (A-427; first compound 0.04 µM) was 1.05, the relative viability (A-427; first compound 0.1265 µM) was 1.17 and the relative viability (A-427; first compound 0.4 µM) was 1.11. For the same molecule, the relative viability (A-427; first compound 4 µM) was 1.22, the relative viability (COR-L 105; first compound 0.04 µM) was 1.39 and the relative viability (COR-L 105; first compound 0.1265 µM) was 0.971. For the same molecule, the relative viability (COR-L 105; first compound 0.4 µM) was 1.17, the relative viability (COR-L 105; first compound 4 µM) was 0.701 and the relative viability (COR-L23; first compound 0.04 µM) was 0.991. The relative viability (COR-L23; first compound 0.1265 µM) was 1.05, the relative viability (COR-L23; first compound 0.4 µM) was 1.02 and the relative viability (COR-L23; first compound 4 µM) was 0.929. For the same molecule, the relative viability (EKVX; first compound 0.04 µM) was 0.947, the relative viability (EKVX; first compound 0.1265 µM) was 1.16 and the relative viability (EKVX; first compound 0.4 µM) was 0.927. For the same molecule, the relative viability (EKVX; first compound 4 µM) was 0.76, the relative viability (HARA; first compound 0.1265 µM) was 0.757 and the relative viability (HARA; first compound 0.4 µM) was 0.891. For the same molecule, the relative viability (HARA; first compound 4 µM) was 0.879, the relative viability (HCC-15; first compound 0.04 µM) was 1.05 and the relative viability (HCC-15; first compound 0.1265 µM) was 1.06. The relative viability (HCC-15; first compound 0.4 µM) was 1.02, the relative viability (HCC-15; first compound 4 µM) was 0.73 and the relative viability (HCC-827; first compound 0.04 µM) was 1.08. It also gave a relative viability (HCC-827; first compound 0.1265 µM) of 1, a relative viability (HCC-827; first compound 0.4 µM) of 1.08 and a relative viability (HCC-827; first compound 4 µM) of 0.939. The relative viability (LCLC-103H; first compound 0.04 µM) was 0.777, the relative viability (LCLC-103H; first compound 0.1265 µM) was 0.671 and the relative viability (LCLC-103H; first compound 0.4 µM) was 0.671. For the same molecule, the relative viability (LCLC-103H; first compound 4 µM) was 0.608, the relative viability (LK-2; first compound 0.1265 µM) was 1.27 and the relative viability (LK-2; first compound 0.4 µM) was 1.16. The relative viability (LK-2; first compound 4 µM) was 1.47, the relative viability (NCI-H1437; first compound 0.04 µM) was 1.25 and the relative viability (NCI-H1437; first compound 0.1265 µM) was 1.26. The relative viability (NCI-H1437; first compound 0.4 µM) was 1.29, the relative viability (NCI-H1437; first compound 4 µM) was 0.957 and the relative viability (NCI-H1666; first compound 0.04 µM) was 0.952. The relative viability (NCI-H1666; first compound 0.1265 µM) was 0.989, the relative viability (NCI-H1666; first compound 0.4 µM) was 1.05 and the relative viability (NCI-H1666; first compound 4 µM) was 0.812. For the same molecule, the relative viability (NCI-H1975; first compound 0.04 µM) was 0.978, the relative viability (NCI-H1975; first compound 0.1265 µM) was 0.782 and the relative viability (NCI-H1975; first compound 0.4 µM) was 0.996. For the same molecule, the relative viability (NCI-H1975; first compound 4 µM) was 0.765, the relative viability (NCI-H23; first compound 0.04 µM) was 0.95 and the relative viability (NCI-H23; first compound 0.1265 µM) was 0.85. It also gave a relative viability (NCI-H23; first compound 0.4 µM) of 0.945, a relative viability (NCI-H23; first compound 4 µM) of 0.844 and a relative viability (NCI-H441; first compound 0.04 µM) of 0.925. The relative viability (NCI-H441; first compound 0.1265 µM) was 0.978, the relative viability (NCI-H441; first compound 0.4 µM) was 0.911 and the relative viability (NCI-H441; first compound 4 µM) was 0.934. It also gave a relative viability (NCI-H520; first compound 0.04 µM) of 0.86, a relative viability (NCI-H520; first compound 0.1265 µM) of 0.88 and a relative viability (NCI-H520; first compound 0.4 µM) of 0.527. For the same molecule, the relative viability (NCI-H520; first compound 4 µM) was 0.613, the relative viability (NCI-H596; first compound 0.04 µM) was 0.926 and the relative viability (NCI-H596; first compound 0.1265 µM) was 0.835. The relative viability (NCI-H596; first compound 0.4 µM) was 0.909, the relative viability (NCI-H596; first compound 4 µM) was 0.87 and the relative viability (NCI-H650; first compound 0.04 µM) was 0.993. The relative viability (NCI-H650; first compound 0.1265 µM) was 0.977, the relative viability (NCI-H650; first compound 0.4 µM) was 1.03 and the relative viability (NCI-H650; first compound 4 µM) was 0.875. The relative viability (NCI-H838; first compound 0.04 µM) was 0.871, the relative viability (NCI-H838; first compound 0.1265 µM) was 0.952 and the relative viability (NCI-H838; first compound 0.4 µM) was 0.969. For the same molecule, the relative viability (NCI-H838; first compound 4 µM) was 0.723, the relative viability (SK-MES-1; first compound 0.04 µM) was 1.15 and the relative viability (SK-MES-1; first compound 0.1265 µM) was 0.822. The relative viability (SK-MES-1; first compound 0.4 µM) was 0.76, the relative viability (SK-MES-1; first compound 4 µM) was 0.746 and the relative viability (SW 900; first compound 0.04 µM) was 0.809. It also gave a relative viability (SW 900; first compound 0.1265 µM) of 0.836, a relative viability (SW 900; first compound 0.4 µM) of 0.816 and a relative viability (SW 900; first compound 4 µM) of 0.782.
